Laboratory results taken from ChEMBL document CHEMBL4825672, “Marine Bile Natural Products as Agonists of the TGR5 Receptor” (J Nat Prod, 2021).
Calls of active or inactive are those of the source. No cut-off for these calls is given here.

Tests used:
[1] = biological target: T1, G-protein coupled bile acid receptor 1 (Homo sapiens) (UniProt Q8TDU6); experiment: Agonist activity at TGR5 (unknown origin) transfected in HEK293 cells assessed as increase in intracellular calcium level at 0.5 to 0.67 mM in presence of Galphaq inhibitor, UBO-QIC and in absence of extracellular calcium by Fura-2AM dye based fluorometric analysis; format: functional, cell-based; conditions: dose 0.5-0.67 mM
T1 sequence (whole entry): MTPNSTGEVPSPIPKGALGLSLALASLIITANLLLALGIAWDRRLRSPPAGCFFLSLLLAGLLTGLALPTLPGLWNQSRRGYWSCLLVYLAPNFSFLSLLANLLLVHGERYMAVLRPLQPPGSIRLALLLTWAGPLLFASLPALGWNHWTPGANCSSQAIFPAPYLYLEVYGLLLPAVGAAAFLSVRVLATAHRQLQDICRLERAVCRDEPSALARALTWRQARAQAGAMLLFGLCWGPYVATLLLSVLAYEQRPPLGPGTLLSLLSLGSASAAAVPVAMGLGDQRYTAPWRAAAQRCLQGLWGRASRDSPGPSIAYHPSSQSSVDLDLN

[2] = tested on: HEK293; experiment: Induction of intracellular calcium level in human HEK293 cells at 0.5 to 0.67 mM in absence of extracellular calcium by Fura-2AM dye based fluorometric analysis; format: functional, cell-based; conditions: dose 0.5-0.67 mM
[3] = biological target: T1, G-protein coupled bile acid receptor 1 (Homo sapiens); experiment: Agonist activity at TGR5 (unknown origin) transfected in HEK293 cells assessed as increase in intracellular calcium level in absence of extracellular calcium by Fura-2AM dye based fluorometric analysis; format: functional, cell-based; conditions: filed as agonist, dose 0.5-0.67 mM
[4] = tested on: HEK293; experiment: Cytotoxicity against human HEK293 cells transfected with TGR5 assessed as reduction in cell viability at 1 mM measured after 2.5 hrs by MTS assay; format: cell-based; conditions: hek293, 2.5 h, 1000 µM
[5] = biological target: T1, G-protein coupled bile acid receptor 1 (Homo sapiens); experiment: Agonist activity at TGR5 (unknown origin) transfected in HEK293 cells assessed as increase in intracellular calcium level at 1 mM in presence of Galphaq inhibitor, UBO-QIC and in absence of extracellular calcium by Fura-2AM dye based fluorometric analysis; format: functional, cell-based
[6] = tested on: HEK293; experiment: Induction of intracellular calcium level in human HEK293 cells at 1 mM in absence of extracellular calcium by Fura-2AM dye based fluorometric analysis; format: functional, cell-based
[7] = biological target: T1, G-protein coupled bile acid receptor 1 (Homo sapiens); experiment: Agonist activity at TGR5 (unknown origin) transfected in HEK293 cells assessed as increase in intracellular calcium level at 0.33 mM in presence of Galphaq inhibitor, UBO-QIC and in absence of extracellular calcium by Fura-2AM dye based fluorometric analysis; format: functional, cell-based
[8] = tested on: HEK293; experiment: Cytotoxicity against human HEK293 cells transfected with TGR5 assessed as reduction in cell viability at 0.33 to 0.5 mM measured after 2.5 hrs by MTS assay; format: cell-based; conditions: hek293, 2.5 h, 500 µM, dose 0.33-0.5 mM
[9] = tested on: HEK293; experiment: Induction of intracellular calcium level in human HEK293 cells at 0.1 to 0.33 mM in absence of extracellular calcium by Fura-2AM dye based fluorometric analysis; format: functional, cell-based; conditions: dose 0.1-0.33 mM
[10] = tested on: HEK293; experiment: Induction of intracellular calcium level in human HEK293 cells at 0.1 mM in presence of Galphaq inhibitor, UBO-QIC and in absence of extracellular calcium by Fura-2AM dye based fluorometric analysis; format: functional, cell-based
[11] = tested on: HEK293; experiment: Cytotoxicity against human HEK293 cells transfected with TGR5 assessed as reduction in cell viability at 0.67 mM measured after 2.5 hrs by MTS assay; format: cell-based; conditions: hek293, 2.5 h, 670 µM
[12] = biological target: T1, G-protein coupled bile acid receptor 1 (Homo sapiens); experiment: Agonist activity at TGR5 (unknown origin) transfected in HEK293 cells assessed as increase in intracellular calcium level at 0.1 to 0.33 mM in absence of extracellular calcium by Fura-2AM dye based fluorometric analysis; format: functional, cell-based; conditions: filed as agonist, dose 0.1-0.33 mM
[13] = tested on: HEK293; experiment: Induction of intracellular calcium level in human HEK293 cells at 0.33 mM in presence of Galphaq inhibitor, UBO-QIC and in absence of extracellular calcium by Fura-2AM dye based fluorometric analysis; format: functional, cell-based
[14] = biological target: T1, G-protein coupled bile acid receptor 1 (Homo sapiens); experiment: Agonist activity at TGR5 (unknown origin) transfected in HEK293 cells assessed as increase in intracellular calcium level at 0.1 mM in presence of Galphaq inhibitor, UBO-QIC and in absence of extracellular calcium by Fura-2AM dye based fluorometric analysis; format: functional, cell-based; conditions: filed as agonist

For `C[C@H](CC[C@H](O)C(CO)CO)[C@H]1CC[C@H]2[C@@H]3[C@H](O)C[C@@H]4C[C@H](O)CC[C@]4(C)[C@H]3C[C@H](O)[C@]12C`, the Activity [1] was “inactive”, the Activity [2] was “inactive” and the Activity [3] was “Dose-Dependent Effect”. The Activity [4] was “Toxic”.
In the case of `C[C@H](CC[C@H](O)C(CO)COS(=O)(=O)O)[C@H]1CC[C@H]2[C@@H]3[C@H](O)C[C@@H]4C[C@H](O)CC[C@]4(C)[C@H]3C[C@H](O)[C@]12C` (some centres not stated), the Activity [5] is reported as “inactive”, the Activity [6] is reported as “inactive” and the Activity [4] is reported as “Non-Toxic”.
In the case of `C[C@H](CCC(=O)O)[C@H]1CC[C@H]2[C@@H]3CC[C@@H]4C[C@H](O)CC[C@]4(C)[C@H]3C[C@H](O)[C@]12C` [DEOXYCHOLIC ACID], the Activity [7] is reported as “inactive”, the Activity [8] is reported as “Toxic” and the Activity [9] is reported as “Dose-Dependent Effect”. For the same compound, the Activity [10] was “Active”, the Activity [11] was “Toxic” and the Activity [12] was “Dose-Dependent Effect”. For the same compound, the Activity [13] was “inactive” and the Activity [14] was “Active”.
For `C[C@H](CCC(=O)O)[C@H]1CC[C@H]2[C@@H]3[C@@H](O)C[C@@H]4C[C@H](O)CC[C@]4(C)[C@H]3CC[C@]12C` [URSODIOL], the Activity [6] was “inactive” and the Activity [4] was “Non-Toxic”.
